Measurements reported in paper PMC9331678 (Molecules, 2022).

Legend:
[1] = 6 h benchtop (early preanalytical) stability in whole blood and in plasma; assay type: in vitro ADME, human
Experimental: Six independent plasma samples were processed. The reference solutions were 140 µL acetonitrile-water 4:1 (v/v) mixtures spiked as described above. The mixtures and the reference solutions were subsequently diluted with 90 µL water. Internal standard-corrected matrix factors were calculated as the peak area ratios of the analytes and the internal standards in prepared plasma versus those in a neat solution. In the stability studies, the recoveries of IBR and DIB were calculated as the ratio of the concentrations measured after incubation and those measured at the beginning of the study.
The preanalytical stability of IBR and DIB was evaluated by adding 20 µL methanol solutions containing 500 ng/mL IBR and DIB to two 1.0 mL aliquots of blood freshly drawn into phlebotomy tubes containing K3-EDTA. Three samples, 3 mL each, were taken from three healthy volunteers (manuscript authors G.B.K., I.V. and Z.K.). One of the fractions was centrifuged at 3000 rpm and 10 °C for 10 min immediately after spiking the analytes, and plasma was separated. Both spiked whole blood and the separated plasma were kept at ambient temperature for 6 h. […] Fifty microliters was drawn from the supernatant of the whole blood sample as well as from the plasma, and was processed as described in Section 2.2.

[2] = Stability in plasma at −70 °C; assay type: in vitro ADME
[3] = population modeling study; cited from earlier work
[4] = 24 h therapeutic monitoring and noncompartmental pharmacokinetics in chronic lymphocytic leukemia patients receiving IBR; settings: plasma; for mean DIB/IBR concentration ratio: three patients; for concentration at 0.5 h: 0.5 h postdose; for concentration at 1 h: 1 h postdose
[5] = Patient 1, 420 mg IBR per day, steady state
[6] = Patient 2, 420 mg IBR per day, steady state
[7] = Patient 3, 280 mg IBR per day, steady state
[8] = human, oral, 280 mg/day, Conc., subj=3 (280 mg IBR per day)
[9] = human, oral, 420 mg, Conc., subj=1 (420 mg IBR per day)

recovery at 9.8 ng/mL ([1]; human, plasma (separated from spiked K3-EDTA whole blood), plasma, ambient temperature (25 °C), up to 6 h, all analyses): ≥ 85%
stability ([1]; whole blood and plasma kept at ambient temperature for 6 h): acceptable for clinical use
cases with recoveries lower than 85% (of fifteen analyses) ([1]; whole blood, ambient temperature (25 °C), up to 6 h): one
stability in plasma [2]: 3 month
AUC0–24 [4, 5]: 2347 nmol·L/h
AUMC0–24 [4, 5]: 16,593 nmol × L
AUC0–24 [4, 6]: 2528 nmol·L/h
AUMC0–24 [4, 6]: 11,626 nmol × L
AUC0–24 [4, 7]: 1800 nmol·L/h
AUMC0–24 [4, 7]: 8172 nmol·L
mean DIB/IBR concentration ratio ([4]; at 4 h postdose): 2.36 ± 1.69
mean DIB/IBR concentration ratio ([4]; at the trough (23–24 h)): 3.34–3.44
mean DIB/IBR concentration ratio ([4]; between 0.5–2 h postdose): 0.96–1.19
AUC ([4]; human, oral, 280 mg, AUCALL AUC All, subj=3 (280 mg IBR per day), steady state): 1.8 µM·h
AUC(0-inf) ([4]; human, oral, 280 mg, AUCIFO AUC Infinity Obs, subj=3 (280 mg IBR per day), steady state): 1.88 µM·h
AUC(0-inf) ([4]; human, oral, 280 mg, AUCIFP AUC Infinity Pred, subj=3 (280 mg IBR per day), steady state): 1.88 µM·h
AUC ([4]; human, oral, 280 mg, AUCLST AUC to Last Nonzero Conc, subj=3 (280 mg IBR per day), steady state): 1.8 µM·h
Cmax ([4]; human, oral, 280 mg, CMAX Max Conc, subj=3 (280 mg IBR per day), steady state): 217 nM
k el ([4]; human, oral, 280 mg, LAMZ Lambda z, subj=3 (280 mg IBR per day), steady state): 3.39e-05 s⁻¹
half-life ([4]; human, oral, 280 mg, LAMZHL Half-Life Lambda z, subj=3 (280 mg IBR per day), steady state): 341 min
MRT last ([4]; human, oral, 280 mg, MRT0–24, Patient 3, 280 mg IBR per day, steady state): 4.54 h
MRT ([4]; human, oral, 280 mg, MRTEVIFO MRT Extravasc Infinity Obs, subj=3 (280 mg IBR per day), steady state): 5.75 h
MRT ([4]; human, oral, 280 mg, MRTEVIFP MRT Extravasc Infinity Pred, subj=3 (280 mg IBR per day), steady state): 5.72 h
MRT ([4]; human, oral, 280 mg, MRTEVLST MRT Extravasc to Last Nonzero Conc, subj=3 (280 mg IBR per day), steady state): 4.54 h
Cmax ([4]; human, oral, 280 mg, cmax, Patient 3, 280 mg IBR per day, steady state): 217 nM
k el ([4]; human, oral, 280 mg, ke, Patient 3, 280 mg IBR per day, steady state): 3.39e-05 s⁻¹
half-life ([4]; human, oral, 280 mg, t1/2, Patient 3, 280 mg IBR per day, steady state): 341 min
Tmax ([4]; human, oral, 280 mg, tmax, Patient 3, 280 mg IBR per day, steady state): 2 h
concentration at 24 h ([4]; human, oral, 280 mg/day, CLST Last Nonzero Conc, subj=3 (280 mg IBR per day), 24 h): 10.1 nM
concentration at 24 h ([4]; human, oral, 280 mg/day, CLSTP Last Nonzero Conc Pred, subj=3 (280 mg IBR per day), 24 h): 9.84 nM
concentration at 0.5 h [4, 8]: 50.4 nM
concentration at 1 h [4, 8]: 195 nM
concentration at 2 h ([4]; human, oral, 280 mg/day, Conc., subj=3 (280 mg IBR per day), 2 h postdose): 217 nM
concentration at 4 h ([4]; human, oral, 280 mg/day, Conc., subj=3 (280 mg IBR per day), 4 h postdose): 113 nM
concentration at 23 h ([4]; human, oral, 280 mg/day, Conc., subj=3 (280 mg IBR per day), 23 h postdose): 10.8 nM
concentration at 24 h ([4]; human, oral, 280 mg/day, Conc., subj=3 (280 mg IBR per day), 24 h postdose): 10.1 nM
AUC ([4]; human, oral, 420 mg, AUCALL AUC All, subj=1 (420 mg IBR per day), steady state): 2.35 µM·h
AUC ([4]; human, oral, 420 mg, AUCALL AUC All, subj=2 (420 mg IBR per day), steady state): 2.53 µM·h
AUC(0-inf) ([4]; human, oral, 420 mg, AUCIFO AUC Infinity Obs, subj=1 (420 mg IBR per day), steady state): 2.85 µM·h
AUC(0-inf) ([4]; human, oral, 420 mg, AUCIFO AUC Infinity Obs, subj=2 (420 mg IBR per day), steady state): 2.63 µM·h
AUC(0-inf) ([4]; human, oral, 420 mg, AUCIFP AUC Infinity Pred, subj=1 (420 mg IBR per day), steady state): 2.88 µM·h
AUC(0-inf) ([4]; human, oral, 420 mg, AUCIFP AUC Infinity Pred, subj=2 (420 mg IBR per day), steady state): 2.63 µM·h
AUC ([4]; human, oral, 420 mg, AUCLST AUC to Last Nonzero Conc, subj=1 (420 mg IBR per day), steady state): 2.35 µM·h
AUC ([4]; human, oral, 420 mg, AUCLST AUC to Last Nonzero Conc, subj=2 (420 mg IBR per day), steady state): 2.53 µM·h
concentration at 24 h ([4]; human, oral, 420 mg, CLST Last Nonzero Conc, subj=1 (420 mg IBR per day), 24 h): 34.6 nM
concentration at 24 h ([4]; human, oral, 420 mg, CLST Last Nonzero Conc, subj=2 (420 mg IBR per day), 24 h): 13.2 nM
concentration at 24 h ([4]; human, oral, 420 mg, CLSTP Last Nonzero Conc Pred, subj=1 (420 mg IBR per day), 24 h): 36.5 nM
concentration at 24 h ([4]; human, oral, 420 mg, CLSTP Last Nonzero Conc Pred, subj=2 (420 mg IBR per day), 24 h): 13 nM
Cmax ([4]; human, oral, 420 mg, CMAX Max Conc, subj=1 (420 mg IBR per day), steady state): 185 nM
Cmax ([4]; human, oral, 420 mg, CMAX Max Conc, subj=2 (420 mg IBR per day), steady state): 254 nM
concentration at 0.5 h [4, 9]: 53.4 nM
concentration at 1 h [4, 9]: 139 nM
Structure (SMILES): Nc1ncnc2c1c(-c1ccc(Oc3ccccc3)cc1)nn2[C@@H]1CCCN(C(=O)C(O)CO)C1 (stereo partly drawn) [Dihydrodiol Ibrutinib, 1-[(3R)-3-[4-amino-3-(4-phenoxyphenyl)pyrazolo[3,4-d]pyrimidin-1-yl]piperidin-1-yl]-2,3-dihydroxypropan-1-one]
interindividual variability in the clearance [3]: 51%
intraindividual variability in the clearance [3]: 26%
